# Literature values in patent US9655905B2, “Treatment of sickle cell disease” (KING ABDULLAH UNIVERSITY OF SCIENCE AND TECHNOLOGY, priority 2011, dated 2017).
# Columns and labels:
# IL-1β = settings: for Effect on IL-1β: Table 6, cytokine/inflammatory, up in SCD
# IL-10 = settings: for Effect on IL-10: Table 6, anti-inflammatory; for levels of anti-inflammatory mediator IL-10: cited literature
# SELP = settings: for Effect on SELP: Table 6, adhesion, up in SCD
# VCAM-1 = test system: VCAM-1; parameters: key to Effect on VCAM-1: increases protein levels; decrease: reduces protein levels; exert no effect on protein levels; not known: has not been experimentally determined
# IL-3 = test system: IL-3; parameters: key: increases protein levels; decrease: reduces protein levels; exert no effect on protein levels; not known: has not been experimentally determined; settings: Table 6; inflammatory, up in SCD
# NO = settings: for Effect on NO: Table 6, vasodilator, down in SCD
# IL-8 = test system: IL-8; parameters: key to Effect on IL-8: increases protein levels; decrease: reduces protein levels; exert no effect on protein levels; not known: has not been experimentally determined
# SELE = settings: for Effect on SELE: Table 6, adhesion, up in SCD
# TNFα = settings: for Effect on TNFα: Table 6, cytokine/inflammatory, up in SCD; for levels of TNF-α: cited literature
# eNOS = settings: for Effect on eNOS: Table 6, inhibitor of endothelial cell activation, down in SCD
# VLA-4 = test system: VLA-4; parameters: key to Effect on VLA-4: increases protein levels; decrease: reduces protein levels; exert no effect on protein levels; not known: has not been experimentally determined
# ET-3 = test system: ET-3; parameters: key to Effect on ET-3: increases protein levels; decrease: reduces protein levels; exert no effect on protein levels; not known: has not been experimentally determined
# ET-1 = settings: for Effect on ET-1: Table 6, vasoconstrictor, up in SCD; for levels of vasoconstrictor ET-1: cited literature
# CD36 = test system: CD36; parameters: key to Effect on CD36: increases protein levels; decrease: reduces protein levels; exert no effect on protein levels; not known: has not been experimentally determined
# FN1 = settings: for Effect on FN1: Table 6, coagulatory, up in SCD
# ICAM-1 = settings: for Effect on ICAM-1: Table 6, adhesion, up in SCD
# IL-6 = settings: for Effect on IL-6: Table 6, chemokine/inflammatory, up in SCD
# fetal hemoglobin (HbF) = settings: via NO-cGMP signaling pathway (Cokic, et al 2003)
# NFkB = settings: for Effect on NFkB: Table 6, activator of endothelial cells, up in SCD
# [1] = test system: erythrocyte-endothelial adhesion; settings: HU therapy (Gambero, et al 2007)
# GM-CSF = test system: GM-CSF; parameters: key to Effect on GM-CSF: increases protein levels; decrease: reduces protein levels; exert no effect on protein levels; not known: has not been experimentally determined
# cGMP = settings: Dai, et al 2011
# [2] = test system: leukocyte-endothelial adhesion; settings: colonic UR injury (Santen, et al 2010)
# [3] = test system: (G) gamma-globin promoter
# [4] = HU in SCD, endothelial adhesion molecule
# [5] = on the surface of erythrocytes, HU therapy
# [6] = colonic UR injury (Santen, et al 2010)
# [7] = Table 6, activator of endothelial cells, up in SCD
smiles,measurement,setting,value
"NC(=O)NO [HU, Hydroxyurea]",Effect on IL-1β,IL-1β,increase
same,Effect on IL-10,IL-10,increase
same,levels of anti-inflammatory mediator IL-10,IL-10,increase
same,levels of sSELP,SELP; [4],decreasing
same,Effect on SELP,SELP,decrease
same,levels of sVCAM-1,VCAM-1; [4],decreasing
same,Effect on VCAM-1,"VCAM-1; Table 6, adhesion, up in SCD",decrease
same,Effect on IL-3,IL-3,increase
same,NO bioavailability,"NO; HU treatment of SCD (Conran, et al 2004)",increased
same,Effect on NO,NO,increase
same,expression of IL-8,"IL-8; HU (Laurance, et al 2010)",increases
same,levels of IL-8,"IL-8; HU therapy (Lanaro, et al 2009)",no effect
same,Effect on IL-8,"IL-8; Table 6, chemokine/inflammatory, up in SCD",increase
same,levels of sSELE,SELE; [4],decreasing
same,Effect on SELE,SELE,decrease
same,Effect on TNFα,TNFα,decrease
same,levels of TNF-α,TNFα,decreased
same,Effect on eNOS,eNOS,increase
same,Effect on VLA-4,"VLA-4; Table 6, adhesion, up in SCD",decrease
same,gene and protein expression of VLA-4,VLA-4; [5],reducing
same,levels of vasoconstrictor ET-3,"ET-3; HU in SCD (Makis, et al 2004)",decreasing
same,Effect on ET-3,"ET-3; Table 6, vasoconstrictor, up in SCD",decrease
same,Effect on ET-1,ET-1,decrease
same,levels of vasoconstrictor ET-1,ET-1,decreasing
same,Effect on CD36,"CD36; Table 6, adhesion, up in SCD",decrease
same,gene and protein expression of CD36,CD36; [5],reducing
same,levels of the pro-coagulatory molecule fibronectin,"FN1; HU (Saleh, et al 1999)",no demonstrable effects
same,Effect on FN1,FN1,no effect
same,levels of sICAM-1,ICAM-1; [4],decreasing
same,Effect on ICAM-1,ICAM-1,decrease
same,expression of IL-6,"IL-6; HU (Laurance, et al 2010)",increases
same,Effect on IL-6,IL-6,increase
same,production of fetal hemoglobin (HbF)-containing erythrocytes,fetal hemoglobin (HbF),increasing
same,Effect on NFkB,NFkB,decrease
same,erythrocyte-endothelial adhesion,[1],reduce
same,levels of GM-CSF,"GM-CSF; HU therapy (Conran, et al 2007)",decreased
same,Effect on GM-CSF,"GM-CSF; Table 6, inflammatory, up in SCD",decrease
"O=S(=O)(c1cccc2c(O)nccc12)N1CCCNCC1 [Hydroxyfasudil, 5-(1,4-diazepane-1-sulfonyl)isoquinolin-1-ol]",levels of cGMP,cGMP,increased
same,IL-1β,"IL-1β; He, et al 2008",decrease
same,Effect on IL-1β,IL-1β,decrease
same,Effect on IL-10,IL-10,increase
same,levels of anti-inflammatory mediator IL-10,IL-10,increase
same,Effect on SELP,SELP,decrease
same,SELP,SELP; [6],reduce
same,levels of NO,"NO; Dai, et al 2011",increased
same,Effect on NO,NO,increase
same,Effect on SELE,SELE,decrease
same,SELE,SELE; [6],reduce
same,Effect on TNFα,TNFα,decrease
same,levels of TNF-α,TNFα,decrease
same,levels of eNOS,"eNOS; Dai, et al 2011",increased
same,Effect on eNOS,eNOS,increase
same,Effect on HIF-1,HIF-1; [7],decrease
same,HIF-1α,"HIF-1; Takata, et al 2008",reduce
same,Effect on ET-1,ET-1,decrease
same,levels of vasoconstrictor ET-1,ET-1,suppress
same,Effect on FN1,FN1,decrease
same,Effect on ICAM-1,ICAM-1,decrease
same,ICAM-1,ICAM-1; [6],reduce
same,ICAM-1 expression,"ICAM-1; diabetes-induced microvascular damage (Arita, et al 2009)",reduce
same,Effect on IL-6,IL-6,decrease
same,IL-6 levels,"IL-6; after hypoxia/reoxygenation injury in brain tissue (Ding, et al 2010)",reduce
same,NFκB,"NFkB; He, et al 2008",reduce
same,Effect on NFkB,NFkB,decrease
same,TF,"TF; Satoh, et al 2010",reduce
same,Effect on TF,TF; [7],decrease
same,Effect on ROS,"ROS; Table 6, IR injury-related molecule, up in SCD",decrease
same,injury-induced generation of ROS,"ROS; UR injury (Shiotani, et al 2004)",suppress
same,leukocyte-endothelial adhesion,[2],diminishing
C=C1CC[C@H]2C(C)(C)CCC[C@]2(C)[C@H]1C/C=C1/C(=O)OC[C@@H]1O [Isocoronarin D],production of HbF,[3],induces
same,EGFP inducing potency or HbF production,"[3]; rank among seven diterpenes (Chokchaisiri, et al 2010)",highest
same,cell viability,K562 reporter cell line,75-80%
same,toxicity associated with HbF induction,K562 reporter cell line,little to no
